According to PubChem BioAssay AID2060494 (Molecular Pharmacology Branch, DTP, NCI, 2025):

Tested on: 435261-313-R-J1-PDC complex spheroid viability
Test: Anticancer human tumor 435261-313-R-J1-PDC patient-derived colon adenocarcinoma cell line growth inhibition [GQUAD]
Conditions: for IC50: curve of first compound; for viability, T/C: stronger effect = lower value
Description: DNA G-quadruplex Stabilizer Agents in Combinations in Complex Spheroids
A high-throughput screen of multi-cell type tumor spheroids was designed to identify active combinations of DNA G-quadruplex stabilizer agents and targeted small molecules. Complex spheroids include a stromal component modeled by human endothelial cells (HUVEC) and fibroblasts modeled by human mesenchymal stem cells (MSCs). The concentration ranges selected for each drug and investigational agent were based upon clinically achievable concentrations if the clinical Cmax of the agent was known.
Compounds. The drugs and investigational agents: pidnarulex (CX-5461; NSC782164), APTO-253 (NSC789042), BRACO-19 (NSC847499), peposertib (NSC802822), ceralasertib (NSC780249), elimusertib (NSC800525), camonsertib (NSC841442), AZD-1390 (NSC803789), olaparib (NSC753686), talazoparib (NSC767125), ART-558 (NSC835418), sotorasib (NSC818433), MRTX-1133 (NSC836407), SN-38 (NSC673596), topotecan (NSC609699), etoposide (NSC141540), doxorubicin (NSC123127), gemcitabine (NSC613327), 5-fluorouracil (NSC19893), paclitaxel (NSC125973), vemurafenib (NSC761431), panobinostat (NSC761190), R-306465 (JNJ-16241199; NSC773264), adavosertib (NSC754352), TP-3654 (NSC805149), carboplatin (NSC241240), KSQ-4279 (NSC840948), and staurosporine (NSC755774) were obtained from the National Cancer Institute (NCI) Developmental Therapeutics Program Chemical Repository (34). The FDA-approved anticancer drug set is available from the NCI Developmental Therapeutics Program. […] The stock solutions were prepared in dimethyl sulfoxide (DMSO, Sigma-Aldrich, St. Louis, MO, cat. D2650) at 800-fold the tested concentration and stored at -70 degrees C prior to their use. All drugs and investigational agents were tested over a range starting from a high concentration at or near the clinical Cmax and decreasing in half-log increments. If the clinical Cmax for an agent had not been determined, the highest concentration tested was 10 microM.
2.3 Cell Culture. All cells were maintained in an incubator at 37 degrees C and 5% CO2 with 95% humidity. The PDC lines were cultured according to standard operating procedures established by the NCI PDMR. All PDCs were thawed and cultured in Matrigel-coated flasks prepared with a working solution of 1X Ham's F-12 nutrient mix, without supplementation (Invitrogen, cat. 11765054), 100 U/mL penicillin-streptomycin (Invitrogen, cat. 15140122), and 2.5% Matrigel (Corning Inc., cat. 354248) for the first three passages. The 857933-349-R-J2-PDC line was cultured in 6C/Colon 1B media, which includes advanced DMEM/F-12 (Thermo Fisher Scientific, cat. 12634028), 10 mM HEPES (Thermo Fisher Scientific, cat. 15630080), 1X GlutaMAX supplement (Thermo Fisher Scientific, cat. 35050061), 0.1 mg/mL primocin (InvivoGen, cat. ant-pm-2), 10% defined fetal bovine serum, heat inactivated (HyClone Laboratories Inc., cat. SH30070.03HI), 50% L-WRN conditioned media (ATCC, cat. CRL-3276), 1.25 mM N-Acetyl-L-cysteine (Sigma-Aldrich, cat. A9165), 10 mM nicotinamide (Sigma-Aldrich, cat. N0636), 1X B-27 supplement (Thermo Fisher Scientific, cat. 17504044), 1X N-2 supplement (Thermo Fisher Scientific, cat. 17502048), 10 microM Y-27632 dihydrochloride (Tocris Bioscience, cat. 1254), and 50 ng/mL human EGF recombinant protein (Thermo Fisher Scientific, cat. PHG0311). The 485176-168-R4-J1-PDC line was cultured in Panc media, which includes all 6C/Colon 1B media components plus 100 ng/mL human FGF-10 (Thermo Fisher Scientific, cat. 100-26), 500 nM SB-431542 (Selleckchem, cat. S1067), and gastrin (Tocris, cat. 3006).
[…]

[1] = second compound 0.0316 µM, first compound 0.0316 µM
[2] = second compound 0.0316 µM, first compound 0.1 µM
[3] = second compound 0.0316 µM, first compound 0.316 µM
[4] = second compound 0.0316 µM, first compound 1 µM
[5] = second compound 0.0316 µM, first compound 3.16 µM
[6] = second compound 0.0316 µM, first compound 10 µM
[7] = second compound 0.1 µM, first compound 0.0316 µM
[8] = second compound 0.1 µM, first compound 0.1 µM
[9] = second compound 0.1 µM, first compound 0.316 µM
[10] = second compound 0.1 µM, first compound 1 µM
[11] = second compound 0.1 µM, first compound 3.16 µM
[12] = second compound 0.1 µM, first compound 10 µM
[13] = second compound 0.316 µM, first compound 0.0316 µM
[14] = second compound 0.316 µM, first compound 0.1 µM
[15] = second compound 0.316 µM, first compound 0.316 µM
[16] = second compound 0.316 µM, first compound 1 µM
[17] = second compound 0.316 µM, first compound 3.16 µM
[18] = second compound 0.316 µM, first compound 10 µM
[19] = second compound 1 µM, first compound 0.0316 µM
[20] = second compound 1 µM, first compound 0.1 µM
[21] = second compound 1 µM, first compound 0.316 µM
[22] = second compound 1 µM, first compound 1 µM
[23] = second compound 1 µM, first compound 3.16 µM
[24] = second compound 1 µM, first compound 10 µM
[25] = second compound 3.16 µM, first compound 0.0316 µM
[26] = second compound 3.16 µM, first compound 0.1 µM
[27] = second compound 3.16 µM, first compound 0.316 µM
[28] = second compound 3.16 µM, first compound 1 µM
[29] = second compound 3.16 µM, first compound 3.16 µM
[30] = second compound 3.16 µM, first compound 10 µM
[31] = second compound 10 µM, first compound 0.0316 µM
[32] = second compound 10 µM, first compound 0.1 µM
[33] = second compound 10 µM, first compound 0.316 µM
[34] = second compound 10 µM, first compound 1 µM
[35] = second compound 10 µM, first compound 3.16 µM
[36] = second compound 10 µM, first compound 10 µM
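Further: spheroids exposed to the agents for seven days before readout.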
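Wherever viability, T/C is given: percent of vehicle control viability with DMSO wells as 100%.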

In the case of CC(C)(O)C1CCC(Nc2ccc3ncc(-c4cccc(C(F)(F)F)c4)n3n2)CC1 (centres undefined) + Cc1[nH]c2ccc(F)cc2c1-c1nc2c3cccnc3c3ncccc3c2[nH]1, the IC50 (second compound 0.0316 µM) is reported as 0.605 µM, the IC50 (second compound 0.1 µM) is reported as 0.683 µM and the IC50 (second compound 0.316 µM) is reported as 0.52 µM. For the same molecule, the IC50 (second compound 1 µM) was 0.229 µM, the IC50 (second compound 3.16 µM) was < 0.0316 µM and the IC50 (second compound 10 µM) was < 0.0316 µM. The viability, T/C [1] was 85.1%, the viability, T/C [2] was 93.4% and the viability, T/C [3] was 79%. For the same molecule, the viability, T/C [4] was 27.4%, the viability, T/C [5] was 6.6% and the viability, T/C [6] was 11.2%. It also gave a viability, T/C [7] of 80%, a viability, T/C [8] of 79.6% and a viability, T/C [9] of 98.3%. It also gave a viability, T/C [10] of 32.2%, a viability, T/C [11] of 8.63% and a viability, T/C [12] of 8.09%. The viability, T/C [13] was 92.8%, the viability, T/C [14] was 90.7% and the viability, T/C [15] was 64.5%. The viability, T/C [16] was 31.5%, the viability, T/C [17] was 3.9% and the viability, T/C [18] was 11.5%. It also gave a viability, T/C [19] of 63.4%, a viability, T/C [20] of 61% and a viability, T/C [21] of 44.1%. For the same molecule, the viability, T/C [22] was 27.3%, the viability, T/C [23] was 6.32% and the viability, T/C [24] was 5.71%. For the same molecule, the viability, T/C [25] was 23.6%, the viability, T/C [26] was 19.2% and the viability, T/C [27] was 30.8%. The viability, T/C [28] was 22.3%, the viability, T/C [29] was 3.91% and the viability, T/C [30] was 3.07%. The viability, T/C [31] was 18.3%, the viability, T/C [32] was 20.8% and the viability, T/C [33] was 18.5%. It also gave a viability, T/C [34] of 20.4%, a viability, T/C [35] of 1.4% and a viability, T/C [36] of 3.39%.

Molecule CC1COCCN1c1cc(C2(O)CC3CCC(C2)O3)c2cnn(-c3ccn[nH]3)c2n1 (centres undefined) + Cc1cnc(CNC(=O)c2c(=O)c3ccc(N4CCCN(C)CC4)nc3n3c2sc2ccccc23)cn1 has an IC50 (second compound 0.0316 µM) of 0.0952 µM, an IC50 (second compound 0.1 µM) of 0.105 µM and an IC50 (second compound 0.316 µM) of 0.0485 µM. For the same molecule, the IC50 (second compound 1 µM) was < 0.0316 µM, the IC50 (second compound 3.16 µM) was < 0.0316 µM and the IC50 (second compound 10 µM) was < 0.0316 µM. The viability, T/C [1] was 59.8%, the viability, T/C [2] was 48% and the viability, T/C [3] was 42.8%. The viability, T/C [4] was 24.6%, the viability, T/C [5] was 23.5% and the viability, T/C [6] was 11.2%. The viability, T/C [7] was 49.5%, the viability, T/C [8] was 57.9% and the viability, T/C [9] was 38.2%. For the same molecule, the viability, T/C [10] was 26.6%, the viability, T/C [11] was 22.3% and the viability, T/C [12] was 10.1%. It also gave a viability, T/C [13] of 51.5%, a viability, T/C [14] of 47.9% and a viability, T/C [15] of 37.2%. For the same molecule, the viability, T/C [16] was 27.7%, the viability, T/C [17] was 18.8% and the viability, T/C [18] was 8.98%. It also gave a viability, T/C [19] of 38.5%, a viability, T/C [20] of 36.1% and a viability, T/C [21] of 23.1%. The viability, T/C [22] was 15.7%, the viability, T/C [23] was 11.3% and the viability, T/C [24] was 4.12%. It also gave a viability, T/C [25] of 12.3%, a viability, T/C [26] of 14.2% and a viability, T/C [27] of 6.28%. For the same molecule, the viability, T/C [28] was 0.12%, the viability, T/C [29] was 0.15% and the viability, T/C [30] was 0.09%. It also gave a viability, T/C [31] of 0.8%, a viability, T/C [32] of 0.14% and a viability, T/C [33] of 0.17%. The viability, T/C [34] was 0.18%, the viability, T/C [35] was 0.19% and the viability, T/C [36] was 0.13%.
